US8173694B2, “Therapeutic agent” (Pentraxin Therapeutics Limited, priority 2001, dated 2012)

Key:
[1] = biological target: serum amyloid P component (SAP) (Homo sapiens, UniProt P02743); assay: Inhibition of SAP binding to amyloid fibrils in vitro; conditions: in vitro inhibition of binding of SAP to amyloid fibrils, protocol of EP 0915088 page 10; read-out: IC50
Excerpt: A method for screening and testing inhibitors of serum amyloid P component (SAP) binding to amyloid fibrils in vitro was devised and used in collaboration with F Hoffmann-La Roche Ltd to identify a suitable lead molecule for drug development. A library of candidate compounds was screened accordingly. The subsequent collaborative medicinal chemistry programme led to synthesis of a family of dicarboxylic acid, pyrrolidone ring containing molecules, of which the most studied is (R)-1-[6-(R)-2-Carboxy-pyrrolidin-1-yl]-6-oxo-hexanoyl]pyrrolidine-2-carboxylic acid. This molecule and related compounds (EP-A-0915088) are modestly potent inhibitors of SAP binding to amyloid fibrils in vitro, with IC50 values around 0.5-1.0 μM.
Further studies determined that each of the following bis-D-Proline compounds were tested for their ability to deplete SAP in vivo as described above. Each of the compounds identified below successfully depleted SAP. In addition, certain of the compounds were further tested for in vitro inhibition of binding of SAP to amyloid fibrils in accordance with the protocol provided in EP 0915088 at page 10, as referenced above. The results are shown in the second column below, where applicable.

[2] = biological target: SAP (Homo sapiens, UniProt P02743); conditions: known low molecular weight ligands; cited from earlier work
Chain of SAP (Homo sapiens, UniProt P02743) (P02743 20-223): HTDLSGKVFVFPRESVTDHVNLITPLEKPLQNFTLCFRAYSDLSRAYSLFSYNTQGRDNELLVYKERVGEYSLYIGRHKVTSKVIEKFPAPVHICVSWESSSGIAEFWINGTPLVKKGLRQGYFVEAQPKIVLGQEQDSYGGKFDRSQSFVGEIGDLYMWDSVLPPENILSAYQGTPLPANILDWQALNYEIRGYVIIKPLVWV

[3] = test system: SAP; assay: SAP binding to experimentally induced amyloid deposits in mice; format: in vivo, mouse
Excerpt: The potency of (R)-1-[6-(R)-2-Carboxy-pyrrolidin-1-yl]-6-oxo-hexanoyl]pyrrolidine-2-carboxylic acid in vivo was initially considered to be consistent with its lower IC50 value in vitro. However the decameric assembly of pentameric SAP molecules, induced by the cross linking capacity of the palindromic drug, is an abnormal molecular configuration which, according to the present invention, will be recognised in vivo and promptly cleared from the circulation. This action of the drug, leading to massive depletion of SAP from the plasma, makes a critical contribution to removal of SAP from the amyloid deposits because the SAP in amyloid is derived from, and in equilibrium with, the plasma SAP pool.

Chain of serum amyloid P component (SAP) (P02743 20-223): as above

Row | Compound | IC50 [1] [nM] | other results
1 | O=C(O)[C@H]1CCCN1C(=O)c1ccc(C(=O)N2CCC[C@@H]2C(=O)O)cc1 | 700 | 
2 | NCCOP(=O)(O)O [phosphoethanolamine] |  | Affinity of binding by SAP [2]: about millimolar
3 | O=C(O)[C@H]1CCCN1C(=O)Cc1ccc(CC(=O)N2CCC[C@@H]2C(=O)O)cc1 | 350 | 
4 | O=C(O)[C@H]1CCCN1C(=O)Cc1cccc(CC(=O)N2CCC[C@@H]2C(=O)O)c1 | 700 | 
5 | O=C(O)[C@H]1CCCN1C(=O)COc1ccc(OCC(=O)N2CCC[C@@H]2C(=O)O)cc1 | 300 | 
6 | O=C(O)[C@H]1CCCN1C(=O)COc1ccccc1OCC(=O)N1CCC[C@@H]1C(=O)O | 400 | 
7 | CC(CS)C(=O)N1CCC[C@@H]1C(=O)O (stereo partly drawn) [1-(3-Mercapto-2-methyl-1-oxopropyl)-D-proline] |  | Binding of SAP to experimentally induced amyloid deposits [3]: inhibits binding of SAP; Dissociation of SAP already bound in amyloid deposits [3]: dissociates SAP that is already bound in the deposits
8 | Cc1c(OCC(=O)N2CCC[C@@H]2C(=O)O)cccc1OCC(=O)N1CCC[C@@H]1C(=O)O | 500 | 
9 | CO[C@@H]1O[C@@H]2COC(C)(C(=O)O)O[C@@H]2[C@H](O)[C@H]1O (stereo partly drawn) [MOβDG, methyl 4,6-O-(1-carboxyethylidene)-β-D-galactopyranoside] |  | Affinity of binding by SAP [2]: about millimolar
